EPA's ToxRefDB 2

Legend:
rat [1] = conditions: Developmental neurotoxicity study; sprague dawley; Oral; Gavage/Intubation; dose end: 112 PND; group: cannot be grouped; systemic / organ weight / brain / absolute
rat [2] = conditions: Developmental neurotoxicity study, sprague dawley, Oral, Gavage/Intubation, dose end: 70 PND, group: cannot be grouped
rat [3] = conditions: Subchronic oral toxicity in rodents, fischer, Feed, dose end: 13 week, group: systemic, systemic / clinical chemistry / cholesterol / cholesterol + systemic / clinical chemistry / protein / protein + systemic / clinical …
rat [4] = conditions: Developmental neurotoxicity study; sprague dawley; Oral; Gavage/Intubation; dose end: 57 PND; group: cannot be grouped; reproductive / offspring survival early / birth index / birth index + systemic / in life observation / body weight / body weight + …
rat [5] = conditions: Combined chronic toxicity/carcinogenicity, fischer, Oral, Feed, dose end: 2 year, group: systemic
mouse [6] = conditions: Subchronic oral toxicity in rodents, b6c3f1, Feed, dose end: 13 week, group: systemic, systemic / in life observation / body weight / body weight + systemic / in life observation / body weight / body weight gain
rat [7] = conditions: Subchronic oral toxicity in rodents, fischer, Feed, dose end: 13 week, group: systemic
rat [8] = conditions: Developmental neurotoxicity study, sprague dawley, Oral, Gavage/Intubation, dose end: 90 PND, group: cannot be grouped
rat [9] = conditions: Subchronic oral toxicity in rodents, fischer, Feed, dose end: 13 week, group: systemic; remark: listed apart in the source
mouse [10] = conditions: Subchronic oral toxicity in rodents, b6c3f1, Feed, dose end: 13 week, group: systemic
mouse [11] = conditions: Developmental neurotoxicity study, other, Oral, Gavage/Intubation, dose end: 21 PND, group: cannot be grouped
dog = conditions: Chronic toxicity; beagle; Oral; Capsule; dose end: 52 week; group: systemic; systemic / in life observation / body weight / body weight + systemic / in life observation / body weight / body weight gain + systemic / …
[12] = systemic / in life observation / body weight / body weight + systemic / in life observation / body weight / body weight gain
[13] = systemic / in life observation / body weight / body weight + systemic / in life observation / body weight / body weight gain + developmental…
[14] = systemic / in life observation / body weight / body weight
[15] = systemic / in life observation / body weight / body weight + systemic / organ weight / liver / absolute
[16] = systemic / in life observation / body weight / body weight + systemic / in life observation / body weight / body weight gain + systemic / …
[17] = systemic / in life observation / body weight / body weight + developmental / offspring survival late / [other] / [other] + systemic / in …
[18] = systemic / in life observation / body weight / body weight + systemic / in life observation / body weight / body weight gain + systemic / in…
[19] = developmental / offspring survival late / [other] / [other] + systemic / in life observation / clinical signs / ataxia + systemic / in life …
[20] = systemic / in life observation / clinical signs / head tilt

How did the LEL (rat [1]) turn out when `O=C1NC(=O)C(c2ccccc2)(c2ccccc2)N1` [5,5-Diphenylhydantoin] was run?
The LEL was 100 mg/kg/day.

What about the LOAEL (rat [1]) of the same compound?
The LOAEL was > 100 mg/kg/day.

And the NEL (rat [1])?
Its NEL is 50 mg/kg/day.

What about the NOAEL (rat [1]) of the same compound?
The NOAEL was ≥ 100 mg/kg/day.

And the NEL (rat [2]; [12])?
Its NEL is 150 mg/kg/day.

And the LEL (rat [2]; [13])?
Its LEL is 200 mg/kg/day.

What about the LOAEL (rat [2]; [13]) of the same compound?
The LOAEL was > 200 mg/kg/day.

What about the NOAEL (rat [2]; [13]) of the same compound?
Its NOAEL is ≥ 200 mg/kg/day.

And the LEL (rat [3])?
The LEL was 50 mg/kg/day.

And the LOAEL (rat [3])?
The LOAEL was > 100 mg/kg/day.

And the NEL (rat [3])?
The NEL was 25 mg/kg/day.

What about the NOAEL (rat [3]) of the same compound?
The NOAEL was ≥ 100 mg/kg/day.

What about the LEL (rat [4]) of the same compound?
The LEL was 200 mg/kg/day.

What about the LOAEL (rat [4]) of the same compound?
The LOAEL was > 200 mg/kg/day.

And the NEL (rat [4])?
Its NEL is < 200 mg/kg/day.

What about the NOAEL (rat [4]) of the same compound?
The NOAEL was ≥ 200 mg/kg/day.

And the NEL (rat [5]; [14])?
The NEL was 12.5 mg/kg/day.

What about the LEL (rat [5]; [15]) of the same compound?
The LEL was 25 mg/kg/day.

And the LOAEL (rat [5]; [15])?
Its LOAEL is > 25 mg/kg/day.

And the NOAEL (rat [5]; [15])?
Its NOAEL is ≥ 25 mg/kg/day.

What about the LEL (mouse [6]) of the same compound?
Its LEL is 20.5 mg/kg/day.

And the LOAEL (mouse [6])?
The LOAEL was 20.5 mg/kg/day.

And the NEL (mouse [6])?
The NEL was < 20.5 mg/kg/day.

And the NOAEL (mouse [6])?
The NOAEL was < 20.5 mg/kg/day.

What about the LEL (rat [7]; [12]) of the same compound?
The LEL was 122 mg/kg/day.

And the LOAEL (rat [7]; [16])?
Its LOAEL is 234 mg/kg/day.

What about the NEL (rat [7]; [16]) of the same compound?
Its NEL is 60.7 mg/kg/day.

What about the NOAEL (rat [7]; [16]) of the same compound?
Its NOAEL is 122 mg/kg/day.

And the LEL (rat [8]; [14])?
Its LEL is 100 mg/kg/day.

And the NEL (rat [8]; [14])?
Its NEL is < 100 mg/kg/day.

And the LOAEL (rat [8]; [17])?
Its LOAEL is > 200 mg/kg/day.

What about the NOAEL (rat [8]; [17]) of the same compound?
The NOAEL was ≥ 200 mg/kg/day.

What about the LEL (rat [9]; [12]) of the same compound?
Its LEL is 122 mg/kg/day.

And the LOAEL (rat [9]; [12])?
Its LOAEL is 122 mg/kg/day.

What about the NEL (rat [9]; [18]) of the same compound?
Its NEL is 60.7 mg/kg/day.

What about the NOAEL (rat [9]; [18]) of the same compound?
Its NOAEL is 60.7 mg/kg/day.

And the LEL (mouse [10]; [12])?
Its LEL is 11.2 mg/kg/day.

What about the NEL (mouse [10]; [12]) of the same compound?
The NEL was < 11.2 mg/kg/day.

And the LOAEL (mouse [10]; [16])?
Its LOAEL is 90 mg/kg/day.

What about the NOAEL (mouse [10]; systemic / pathology microscopic / liver / hypertrophy + systemic / in life observation / mortality / mortality) of the same compound?
The NOAEL was 45 mg/kg/day.

What about the LOAEL (mouse [11]; [19]) of the same compound?
Its LOAEL is > 35 mg/kg/day.

And the NOAEL (mouse [11]; [19])?
Its NOAEL is ≥ 35 mg/kg/day.

What about the LEL (mouse [11]; [20]) of the same compound?
The LEL was 10 mg/kg/day.

And the NEL (mouse [11]; [20])?
The NEL was < 10 mg/kg/day.

Which LEL (dog) does the source give for `CC(C)[C@@H](Nc1ccc(C(F)(F)F)cc1Cl)C(=O)OC(C#N)c1cccc(Oc2ccccc2)c1` (stereo partly drawn) [tau-Fluvalinate] here?
Its LEL is 12 mg/kg/day.

And the LOAEL (dog)?
Its LOAEL is 12 mg/kg/day.

And the NEL (dog)?
The NEL was 3 mg/kg/day.

What about the NOAEL (dog) of the same compound?
The NOAEL was 3 mg/kg/day.
